Assay results taken from patent US20240294548A1, “TRICYCLIC SULTAMS AND SULFAMIDES AS ANTITUMOR AGENTS” (PELOTON THERAPEUTICS INC., priority 2021, published 2024).

Columns and labels:
[1] = tested on: HCT116 human colorectal carcinoma cells; assay: CellTiter-Glo assay (cell viability); type: cell-based; conditions: HCT-116, 72 h, HCT116 cells, 3 days, CellTiter-Glo luminescence, read-out: CTG IC50
Method: HCT116 human colorectal carcinoma cells were used in these experiments. HCT116 cells were obtained from ATCC. CellTiter-Glo® Luminescent Cell Viability Assay Reagent was obtained from Promega.
About 3,000 cells were seeded into 96-well plate with 100 μL of media (DMEM supplemented with 10% FBS, 100 units penicillin, and […] streptomycin per mL) the day before the experiment. For compound treatment, the master plate was prepared as follows: 100× compound stocks were prepared in a 96-well plate by 1 to 3 serial dilutions of 0.5 mM DMSO stocks. Each master plate contained serial dilution of 8 compounds, including the control compound E7820. […] of 100× compound stock was added to each well of the assay plate to give final concentrations of […]. Each concentration was tested in triplicate. After 3 days, cell viability was determined using CellTiter-Glo Luminescent Cell Viability Assay Reagent following the manufacturer's recommended protocol. Briefly, […] of CellTiter-Glo reagent was added to each well of the assay plate and the contents were mixed for 3 minutes at 600 rpm on a shaker (Thermomixer R). The plate was immediately placed in a plate reader (Synergy 2) and the luminescence signal (0.5 second per well integration time) was determined. IC50 values were calculated using Dotmatics software.

[2] = biological target: T1, DCAF15 (DDA1-DDB1ΔB-DCAF15Δpro) (Homo sapiens, UniProt Q66K64, DEL276-383); assay: DCAF15 displacement assay (displacement FRET, probe PT7795); type: binding; conditions: displacement of PT7795 (300 nM), compound 0.01 to 100 μM, 18 hours incubation; read-out: DCAF15 displacement IC50
T1 construct: made in house; host or cells: Sf9 (Bac-to-Bac baculovirus)
Text: (§1) Proteins used for the assays were as follows: Human DDA1 (UniProt:Q9BW61), DDB1 (UniPro: Q16531), and DCAF15 (UniProt: Q66K64) coding sequences were cloned into pFastBac1 vectors and were co-expressed in Sf9 cells using Bac-to-Bac baculovirus expression system (Thermo Fisher Scientific). The expression construct for DCAF15 includes a N-terminal His6-tag to facilitate the purification.
DCAF15 Displacement Assay (Displacement FRET KD)
Synthesis of the probe PT7795 is described in the article.
Binding of PT7795 to DDA1-DDB1AB-DCAF15Δpro was measured by the FRET signal between europium-labeled anti-His antibody (AD0205, Perkin Elmer) that is associated with His-tagged DCAF15 and ALX647 moiety in PT7795. […] After equilibrating for 2-3 hours at 4° C., the plate was removed from the incubator, briefly spun, then read on a Spark 10 (Tecan) at the excitation/emission wavelength of 340 nm/615 nm and 340 nm/665 nm.
Binding of compounds in this disclosure to DCAF15 was measured in a competition by the displacement of PT7795. The concentration of PT7795 was kept at 300 nM while the concentration of a compound was varied from 0.01 to 100 μM. The incubation time was increased to 18 hours for enhanced signal to noise level.
F=Fmin+(Fmax−Fmin)/(1+10^(logIC50−log[Compound])^n) (Equation 2)
The Kds can then be calculated from IC50s using Equation 3 (Cheng-Prusoff equation).

[3] = biological target: T2, DCAF15 RBM39 ternary complex (Homo sapiens, UniProt Q14498+Q66K64, DEL276-383); assay: DCAF15 RBM39 complex formation assay (FRET); type: biochemical; conditions: FRET ratio, 20 nM DDB1DB/DCAF15, 50 nM RBM39 R1R2, overnight at 4° C.; read-out: DCAF15 RBM39 ternary complex EC50
T2 construct: Amino acids 150 to 331 of RBM39 were cloned into pGEX4T3; GST (from the pGEX4T3 vector, own knowledge) followed by a TEV cleavage site (N); made in house; host or cells: Sf9 baculovirus (DDB1ΔB/DCAF15); E. coli (RBM39 R1R2)
T2 sequence (Q66K64 with tags, fused parts or gaps DEL276-383): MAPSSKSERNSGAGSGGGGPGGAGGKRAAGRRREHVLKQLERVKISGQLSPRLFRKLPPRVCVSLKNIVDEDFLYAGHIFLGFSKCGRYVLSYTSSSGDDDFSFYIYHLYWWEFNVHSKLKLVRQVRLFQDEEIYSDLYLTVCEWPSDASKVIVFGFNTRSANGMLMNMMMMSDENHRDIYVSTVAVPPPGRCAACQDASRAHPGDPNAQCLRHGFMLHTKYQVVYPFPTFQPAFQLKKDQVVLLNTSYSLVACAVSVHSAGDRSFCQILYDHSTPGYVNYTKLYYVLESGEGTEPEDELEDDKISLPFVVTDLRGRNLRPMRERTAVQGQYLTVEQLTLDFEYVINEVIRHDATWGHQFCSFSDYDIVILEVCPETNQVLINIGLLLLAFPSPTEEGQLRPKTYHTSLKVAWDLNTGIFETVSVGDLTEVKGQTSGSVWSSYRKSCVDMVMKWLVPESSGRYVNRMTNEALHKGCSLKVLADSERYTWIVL
T2 sequence (Q14498 150-331, stated change not applied): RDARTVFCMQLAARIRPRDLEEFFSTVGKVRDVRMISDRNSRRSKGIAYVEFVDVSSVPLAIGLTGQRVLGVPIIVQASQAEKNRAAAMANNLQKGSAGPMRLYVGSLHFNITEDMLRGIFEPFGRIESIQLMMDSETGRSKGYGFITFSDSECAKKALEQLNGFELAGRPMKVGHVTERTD
Text: as §1
DCAF15 RBM39 Complex Formation Assay
LANCE Eu-W1024 Anti-6×His and SureLight Allophycocyanin-anti-FLAG antibodies were purchased from Perkin Elmer. Human DDB1DB and His-tagged DCAF15 were co-expressed in baculovirus/sf9 system. […] The His-tagged DCAF15 contains six histidine residues directly preceding the DCAF15 sequence without any linker. An RBM39 fragment containing RRM1 and RRM2 was expressed in E. coli.
A compound of the present disclosure in DMSO (2 μL) was transferred to a 384-well assay plate. Compound was added in 14 points, 3-fold serial dilution (1 μM to 0.6 pico molar) in DMSO. […] FRET assay buffer (25 mM HEPES, pH 7.5, 100 mM NaCl, […], 0.5 mM TCEP, 0.005% Tween-20, 0.2 nM Eu-W1024 Anti-6×His, 50 nM SureLight Allophycocyanin-anti-FLAG, 20 nM DDB1DB/DCAF15, 50 nM RBM39 R1R2) was added and the resulting solution was incubated overnight at 4° C. […] Low signal controls containing no compound and high signal controls containing 10 mM indisulam were measured for each plate.
EC50 values were calculated using Dotmatics template equation for 4-parameter fit.
Results are expressed as % formation using the following equation: […]

SMILES | IC50 [1] [nM] | IC50 [2] [nM] | EC50 [3] [nM]
COCCC1Cc2cc(Cl)c3c(Cl)c[nH]c3c2NS1(=O)=O (racemic) [Compound 22, 6,7-dichloro-3-(2-methoxyethyl)-1,3,4,9-tetrahydro-[1,2]thiazino[4,3-g]indole 2,2-dioxide] | 234 | 12300 | 0.7
COCC[C@H]1Cc2cc(Cl)c3c(Cl)c[nH]c3c2NS1(=O)=O (single isomer, unassigned) [Compound 29] | 555 | 50500 | 1.9
COCC[C@@H]1Cc2cc(Cl)c3c(Cl)c[nH]c3c2NS1(=O)=O (single isomer, unassigned) [Compound 30] | 184 | 2580 | 1.3
COCCN1Cc2cc(Cl)c3c(Cl)c[nH]c3c2NS1(=O)=O [Compound 1, 6,7-dichloro-3-(2-methoxyethyl)-1,3,4,9-tetrahydro-[1,2,6] thiadiazino[4,3-g]indole 2,2-dioxide] | 475 | 3160 | 5.5
COCCN1Cc2cc(Cl)c3cc[nH]c3c2NS1(=O)=O [Compound 2, 6-chloro-3-(2-methoxyethyl)-1,3,4,9-tetrahydro-[1,2,6] thiadiazino[4,3-g]indole 2,2-dioxide] | 2230 | 51800 | 65.8
O=S1(=O)NCc2cc(Cl)c3c(Cl)c[nH]c3c2N1 [Compound 3, 6,7-dichloro-1,3,4,9-tetrahydro-[1,2,6]thiadiazino[4,3-g]indole 2,2-dioxide] | 1430 | 27800 | 8.1
O=S1(=O)Nc2c(ccc3c(Cl)c[nH]c23)CN1C1CCCCC1 [Compound 4, 7-chloro-3-cyclohexyl-1,3,4,9-tetrahydro-[1,2,6] thiadiazino[4,3-g]indole 2,2-dioxide] | 943 | 58100 | 16.1
O=S1(=O)CCc2cc(Cl)c3c(Cl)c[nH]c3c2N1 [Compound 5, 6,7-dichloro-1,3,4,9-tetrahydro-[1,2]thiazino[4,3-g]indole 2,2-dioxide] | 789 | 20000 | 11
O=S1(=O)Nc2c(cc(Cl)c3c(Cl)c[nH]c23)CN1Cc1ccccc1 [Compound 6, 3-benzyl-6,7-dichloro-1,3,4,9-tetrahydro-[1,2,6]thiadiazino[4,3-g]indole 2,2-dioxide] | 608 | 5260 | 3.1
O=S1(=O)Nc2c(cc(Cl)c3c(Cl)c[nH]c23)CN1c1ccccc1 [Compound 7, 6,7-dichloro-3-phenyl-1,3,4,9-tetrahydro-[1,2,6] thiadiazino[4,3-g]indole 2,2-dioxide] | 1310 | 17400 | 8.8
COCCN1Cc2cc(Cl)c3c(C#N)c[nH]c3c2NS1(=O)=O [Compound 8, 6-chloro-3-(2-methoxyethyl)-1,3,4,9-tetrahydro-[1,2,6] thiadiazino[4,3-g]indole7-carbonitrile 2,2-dioxide] | 3160 | 3340 | 6.2
CCCC1=Cc2ccc3c(Cl)c[nH]c3c2NS1(=O)=O [Compound 9, 7-chloro-3-propyl-1,9-dihydro-[1,2]thiazino[4,3-g]indole 2,2-dioxide] | 5000 | ≥ 100000 | 74.7
CCCC1Cc2ccc3c(Cl)c[nH]c3c2NS1(=O)=O (stereo not drawn) [Compound 10, 7-chloro-3-propyl-1,3,4,9-tetrahydro-[1,2]thiazino[4,3-g]indole 2,2-dioxide] | 5000 | ≥ 100000 | 16.4
O=S1(=O)Nc2c(cc(Cl)c3c(Cl)c[nH]c23)CN1Cc1cccc(Cl)c1 [Compound 11, 6,7-dichloro-3-(3-chlorobenzyl)-1,3,4,9-tetrahydro-[1,2,6] thiadiazino[4,3-g]indole 2,2-dioxide] | 1400 | 9720 | 2.8
O=S1(=O)Nc2c(cc(Cl)c3c(Cl)c[nH]c23)CN1Cc1ccc(Cl)nc1 [Compound 12, 6,7-dichloro-3-((6-chloropyridin-3-yl)methyl)-1,3,4,9-tetrahydro-[1,2,6]thiadiazino[4,3-g]indole 2,2-dioxide] | 125 | 1110 | 0.7
O=S1(=O)Nc2c(cc(Cl)c3c(Cl)c[nH]c23)CN1Cc1ccc(Cl)cc1 [Compound 13, 6,7-dichloro-3-(4-chlorobenzyl)-1,3,4,9-tetrahydro-[1,2,6] thiadiazino[4,3-g]indole 2,2-dioxide] | 810 | 36100 | 6.2
O=S1(=O)Nc2c(cc(Cl)c3c(Cl)c[nH]c23)CN1Cc1ccccc1Cl [Compound 14, 6,7-dichloro-3-(2-chlorobenzyl)-1,3,4,9-tetrahydro-[1,2,6] thiadiazino[4,3-g] indole 2,2-dioxide] | 218 | 2320 | 3.4
CN1Cc2cc(Cl)c3c(Cl)c[nH]c3c2NS1(=O)=O [Compound 15, 6,7-dichloro-3-methyl-1,3,4,9-tetrahydro-[1,2,6]thiadiazino [4,3-g]indole 2,2-dioxide] | 726 | 14400 | 7.7
O=S1(=O)Nc2c(cc(Cl)c3c(Cl)c[nH]c23)CC1Cc1ccccc1 (stereo not drawn) [Compound 16, 3-benzyl-6,7-dichloro-1,3,4,9-tetrahydro-[1,2] thiazino[4,3-g]indole 2,2-dioxide] | 259 | 1210 | 1
O=c1ccc(CN2Cc3cc(Cl)c4c(Cl)c[nH]c4c3NS2(=O)=O)c[nH]1 [Compound 17, 5-((6,7-dichloro-2,2-dioxido-4,9-dihydro-[1,2,6]thiadiazino[4,3-g]indol-3(1H)-yl)methyl)pyridin-2(1H)-one] | 916 | 797 | 1.8
O=S1(=O)Nc2c(cc(Cl)c3c(Cl)c[nH]c23)CN1CCCCF [Compound 18, 6,7-dichloro-3-(4-fluorobutyl)-1,3,4,9-tetrahydro-[1,2,6]thiadiazino[4,3-g]indole 2,2-dioxide] | 418 | 2680 | 0.9
O=S1(=O)Nc2c(cc(Cl)c3c(Cl)c[nH]c23)CN1Cc1ccccn1 [Compound 19, 6,7-dichloro-3-(pyridin-2-ylmethyl)-1,3,4,9-tetrahydro-[1,2,6]thiadiazino [4,3-g]indole 2,2-dioxide] | 237 | 531 | 1.6
